Assay results: patent US6573271B2, “Method of preventing proliferation of retinal pigment epithelium by retinoic acid receptor agonists” (John Hopkins University School of Medicine, priority 1995, dated 2003)

How the values were obtained:
rabbit model of PVR [1] = details: about 100 μg in biodegradable microspheres, vitreous cavity; cited from earlier work
human RPE cells = assay: [3H]thymidine incorporation / proliferation of cultured human RPE cells
Source text: Primary cultures of human retinal pigment epithelium (RPE) cells were established from eyes obtained from the Old Dominion Eye Bank (Richmond, Va.) or the Eye Bank of Maryland (Baltimore, Md.) using the technique described in P. A. Campochiaro, et al., Invest.
For [3H]thymidine incorporation, RPE cells at passage 3 or 4 were lightly trypsinized and plated in 16-mm wells of 24-well plates. The transfected cells were allowed to attach overnight and then the media containing 5% fetal bovine serum (FBS) were supplemented with retinoids or vehicle alone. Stock solutions (10^−3M) of retinoids were prepared in dimethylsulfoxide (DMSO) and stored as frozen aliquots until used; the highest final concentration of DMSO was 0.1% and was also used for control cultures. The media containing freshly prepared retinoids were changed every three days. At 7 or 10 days 2 μCi/ml of [^3H]thymidine (specific activity, 6.7 Ci/mM; New England Nuclear, Boston, Mass.) was added to the cultures and incorporation was measured as previously described (Leschey, supra).
The potency of retinoid agonists for inhibition of serum stimulated DNA synthesis in human RPE cells was tested. […] The cells were shifted to serum-free media containing the same concentration of retinoid and then pulsed with 10% serum for 18 hours, after which [^3H]thymidine incorporation was measured. Thymidine incorporation for cells grown in control medium was used to calculate the percent inhibition of thymidine incorporation induced by four concentrations of each retinoid (each concentration tested in triplicate) which were then used to generate each line.

RPE cells = assay: RPE cell morphology after 10 days in retinoid; assay type: cell-based, human; details: 1 μm, 5% serum, on plastic
[2] = test system: traction retinal detachment in rabbits; assay: Traction retinal detachment in rabbits after human dermal fibroblasts, subconjunctival injection
rabbit model of PVR [3] = details: 2 to 20 μg/ml SiO, 8 weeks; untreated controls 100%; cited from earlier work
[4] = test system: traction retinal detachment in rabbits; assay: Traction retinal detachment in rabbits after human dermal fibroblasts, intravitreous lipid microvesicles
Source text: In this experiment the retinoid was incorporated into lipid microvesicles utilizing standard techniques.

[5] = test system: traction retinal detachment in rabbits; assay: Traction retinal detachment in rabbits after human RPE cells, subconjunctival injection; assay type: in vivo, rabbit; details: subconjunctival 0.3 mg once a day for five days
Source text: Due to the toxicity of certain RAR agonists and because the effects of retinoids are delayed in onset and reversible, methods for sustained release of the retinoids were investigated. […] The therapeutic effect of the RAR specific agonists was greater than that of RA, which is an agonist for both RXRs and RARs. There were no signs of any toxicity to the retina.

[6] = test system: traction retinal detachment in rabbits; assay: Traction retinal detachment in rabbits after human RPE cells, intravitreal injection of 168 and 299; assay type: in vivo, rabbit
[7] = test system: traction retinal detachment in rabbits; assay: Traction retinal detachment in rabbits after human dermal fibroblasts, subconjunctival lipid microvesicles; assay type: in vivo, rabbit; details: human dermal fibroblasts
[8] = test system: rabbit cell injection model of PVR; assay: Rabbit cell injection model of PVR (RPE cells), intravitreous injection of retinoids; assay type: in vivo; details: for Any RD (%) / Total RD (%): 28 Days
Experimental: Briefly, pigmented rabbits were anesthetized with a subcutaneous injection of 5 mg/kg of xylazine and 25 mg/kg of ketamine, and the pupil of one eye was dilated with 2½% phenylephrine. Under direct observation 5×10^5 RPE cells were injected into the vitreous cavity just anterior to the optic nerve. […] .
Rabbits were examined by indirect ophthalmoscopy on days 7, 14 and 28 and traction retinal detachments were graded. […] . The localized clouds decreased in size and cleared over 2 to 3 weeks. There were no visible changes in the retina. […] .
It was felt that the hair loss and possibly the loss of appetite and death were due to systemic toxicity from drug that had gotten out of the eye. […] . None of the rabbits experienced hair loss and none died; their appetites appeared to be normal.

[9] = Homo sapiens, RPE, read-out: Percent Inhibition of [3H]thymidine incorporation in RPE cells
[10] = 50 μg, single intravitreous injection
[11] = 100 μg intravitreous, two injections (day 1 and day 2 after cell injection)
[12] = 100 μg intravitreous, two injections
[13] = 100 μg, single intravitreous injection

SMILES: CC1=C(/C=C/C(C)=C/C=C/C(C)=C/C(=O)O)C(C)(C)CCC1 [All trans RA, all-trans retinoic acid, reference compound]
- tractional retinal detachment (TRD) (rabbit model of PVR [1]): significantly decreased tractional retinal detachment
- inhibition at 0.05 µM (human RPE cells; [9]): 52.6%
- inhibition at 0.1 µM (human RPE cells; [9]): 78.3%
- inhibition at 1 µM (human RPE cells; [9]): 99.4%
- inhibition of [3H]thymidine incorporation in RPE cells (human RPE cells; incubation for 7 days, FIG. 1): dose-dependent inhibition
- RPE cell morphology / cell overgrowth (RPE cells): did not exhibit cell overgrowth
- % Any RD [2]: 50%
- % Total RD [2]: 0%
- RD at 7 Days, Partial [2]: 0
- RD at 7 Days, Total [2]: 0
- RD at 14 Days, Partial [2]: 0
- RD at 14 Days, Total [2]: 0
- RD at 28 Days, Partial [2]: 5
- RD at 28 Days, Total [2]: 0
- effect on retinal detachments [2]: decreased the number of retinal detachments and slowed the rate at which they developed
- rate of retinal detachment (rabbit model of PVR [3]): 44.5%
- prevention of traction retinal detachment [4]: not effective
- % Any RD ([4]; human dermal fibroblasts): 67%
- % Total RD ([4]; human dermal fibroblasts): 67%
- RD at 7 Days, Partial ([4]; human dermal fibroblasts): 1
- RD at 7 Days, Total ([4]; human dermal fibroblasts): 0
- RD at 14 Days, Partial ([4]; human dermal fibroblasts): 1
- RD at 14 Days, Total ([4]; human dermal fibroblasts): 1
- RD at 28 Days, Partial ([4]; human dermal fibroblasts): 0
- RD at 28 Days, Total ([4]; human dermal fibroblasts): 4
- % Any RD [5]: 0%
- % Total RD [5]: 0%
- RD at 7 Days, Partial [5]: 0
- RD at 7 Days, Total [5]: 0
- RD at 14 Days, Partial [5]: 0
- RD at 14 Days, Total [5]: 0
- RD at 28 Days, Partial [5]: 0
- RD at 28 Days, Total [5]: 0
- % Any RD [6]: 100%
- % Total RD [6]: 0%
- RD at 7 Days, Partial [6]: 0
- RD at 7 Days, Total [6]: 0
- RD at 14 Days, Partial [6]: 0
- RD at 14 Days, Total [6]: 0
- RD at 28 Days, Partial [6]: 2
- RD at 28 Days, Total [6]: 0
- % Any RD [7]: 63%
- % Total RD [7]: 13%
- RD at 7 Days, Partial [7]: 0
- RD at 7 Days, Total [7]: 0
- RD at 14 Days, Partial [7]: 0
- RD at 14 Days, Total [7]: 1
- RD at 28 Days, Partial [7]: 4
- RD at 28 Days, Total [7]: 1
- Partial RD at 14 Days (number of eyes) [8, 10]: 0
- Partial RD at 28 Days (number of eyes) [8, 10]: 0
- Total RD at 14 Days (number of eyes) [8, 10]: 4
- Total RD at 28 Days (number of eyes) [8, 10]: 4
- Any RD (%) [8, 10]: 66.7%
- Total RD (%) [8, 10]: 66.7%
- Partial RD at 14 Days (number of eyes) [8, 11]: 2
- Partial RD at 28 Days (number of eyes) [8, 11]: 4
- Total RD at 14 Days (number of eyes) [8, 11]: 0
- Total RD at 28 Days (number of eyes) [8, 11]: 0
- Any RD (%) [8, 12]: 44.4+ %
- Total RD (%) [8, 12]: 0%
- Partial RD at 14 Days (number of eyes) [8, 13]: 1
- Partial RD at 28 Days (number of eyes) [8, 13]: 1
- Total RD at 14 Days (number of eyes) [8, 13]: 0
- Total RD at 28 Days (number of eyes) [8, 13]: 1
- Any RD (%) [8, 13]: 28.6+ %
- Total RD (%) [8, 13]: 14.3%
- frequency and severity of traction retinal detachments versus vehicle ([8]; initial group, intravitreous injections of 100 μg): fewer (p(0.05) and less severe traction retinal detachments
- frequency and severity of retinal detachments versus control ([8]; single intravitreous injection one day after RPE cell injection): fewer (p(0.05) and less severe retinal detachments
